The source of these data is US10822317B2, “Methods and compositions for wound healing” (QBiotics Limited, priority 2013, dated 2020).

In one experiment the test system is mouse skin. The experiment is described as follows: Acute inflammatory response in mouse skin. The class given is in vivo. To be noted: male nude mice, s.c. 50 μL of 100 μg/mL; for scarring of the healed site: 14 days; for diameter of affected area of skin: by 24 hr. On the procedure: Male nude mice were injected subcutaneously on each flank with 50 μL of solutions of 100 μg/mL of Compounds 1, 2, 5 and 42 respectively in 20% propylene glycol. Each site reddened within 4 hr and by 24 hr the affected area covered approximately 1 cm diameter of skin.

The subject of experiment [1] is human peripheral blood monocytes. The experiment is described as follows: Differentiation of monocytes into macrophages. The conditions noted are these: 10-fold dilutions; 4 days; adherence and morphology. Type of experiment: cell-based. On the procedure: To determine potential effects of Compound 1 and fifteen other epoxy-tigliane compounds in the array on monocyte differentiation, human peripheral blood mononuclear cells (PBMCs) were isolated by Ficoll-Paque sedimentation of heparinised blood from a human donor, and plated at 100,000 cells/well in RPMI-1640 10% FCS. Duplicate wells were treated with 10-fold dilutions of the compounds and incubated at 37° C. for 4 days. The wells were scored visually for cell attachment and morphology, then washed twice with PBS, stained with sulfurhodamine and the incorporate stain quantitated in an ELISA reader. The plates were then washed with water and stained with 1% crystal violet in methanol for photography and scoring of adherent cell morphology.

In experiment [2] the test system is human neonatal fibroblasts. The experiment is described as follows: Scratch closure, human neonatal fibroblasts, Method 3 (IncuCyte). Type of experiment: cell-based. The protocol: (§1) The ability of early. passage neonatal foreskin fibroblasts (NFF) cultured in RPMI 1640-10% foetal calf serum to migrate across a scratch wound made in a confluent monolayer following treatment with purified compounds or plant extracts was determined using one or more of the following three methods.
Cells were seeded and treated in 96-well plates as in Method 2 (5 replicate wells per dilution), except that the scratches were made in one action with a tool having 96, 1 mm thick teflon coated pins (Essen Bioscience Woundmaker). The plate was then placed in a 37° C., 5% CO2 humidified atmosphere in an IncuCyte FLR instrument programmed to photograph each well under phase contrast at 3 hr intervals for 42 hours. The software determined the initial scratch boundaries and their rate of closure. Accelerated wound closure was considered to be significant if the initial rate of closure was >10% of the untreated controls.

Experiment [3] has as its system human neonatal fibroblasts. The experiment is described as follows: Scratch closure, human neonatal fibroblasts, Method 1. The class given is cell-based. On the procedure:
as §1
Cells were seeded in 16-mm diameter wells (24-well plates), allowed to become confluent and 2 scratches made in each well using a sterile plastic pipette tip. The medium was removed, the wells washed with phosphate-buffered saline pH 7.2 (PBS) to remove dislodged cells, fresh medium added followed by serial 10-fold dilutions of pure compound or plant extract (2 μL). Incubation was continued for 16 to 30 hr. The experiment was terminated when the scratch edges of untreated cultures had closed approximately 25% of the initial gap. The monolayers were washed with PBS, fixed with ethanol and stained with 0.05% crystal violet. Photomicrographs of each well (EVOS microscope) were printed and each scratch measured at 3 places to determine the mean width. Accelerated wound closure-was considered to be significant if the remaining gap was <40% of the gap of the untreated controls: […]

The subject of experiment [4] is human neonatal fibroblasts. As to the kind of experiment: Matrigel invasion assay for migratory ability. To be noted: for Cell count as % of control (Control = no compounds added): 30 ng/mL, 24 hrs, fibroblasts starved 2 days, 1% foetal calf serum, ± standard deviation, two replicate experiments. Type of experiment: cell-based. An excerpt:
Matrigel invasion chambers provide cells with the conditions that allow assessment of their invasive property in vitro. The Matrigel invasion chambers consists of a cell culture companion plate with cell culture inserts containing an 8 micron pore size PET membrane with a thin layer of Matrigel Basement Membrane Matrix. The Matrigel matrix serves as a reconstituted basement membrane in vitro. The layer occludes the pores of the membrane, blocking non-invasive cells from migrating through the membrane. In contrast, invasive cells are able to detach themselves from and invade through the Matrigel matrix and the 8 micron membrane pores. The membrane may be processed for light and electron microscopy and can be easily removed after staining.
The chambers were used according to the manufacturer's instructions, as described below in two studies, to assess the effects of Compounds 1, 2, 5 and 42 on migration of human neonatal fibroblasts. The first study assessed effects of three concentrations (0, 10 and 30 ng/mL) of Compound 1 on neonatal fibroblasts in wells containing media with 10% foetal calf serum. The second study used two concentrations (0 and 30 ng/mL) for each of Compounds 1, 2, 5 and 42 to examine effects on migration of neonatal fibroblasts starved for 2 days prior to treatment and then transferred to media with 1% foetal calf serum.
The package containing the chambers was removed from −20° C. storage and allowed to come to room temperature. Warm (37° C.) bicarbonate based culture medium was added to the interior of the inserts (500 μL) and bottom of wells (750 μL). The chambers containing the Matrigel were allowed to rehydrate for 2 hours in humidified tissue culture incubator, 37° C., 5% CO2 atmosphere. After rehydration, the medium was carefully removed by aspiration without disturbing the layer of Matrigel™ Matrix on the membrane.
Cells were harvested, and resuspended at 20,000 cells per mL. A total of 250 μL of the cell suspension was placed into the interior of the insert (5,000 cells). An extra 250 μL media containing the respective Compounds was then added to the interior of the insert to give the desired final concentrations for each of the two studies. A total of 750 μL of media containing appropriate concentrations of each compound in each treatment were placed in the well under the appropriate insert. The Matrigel chambers were then incubated for 24 hours in a humidified tissue culture incubator, at 37° C., 5% CO2 atmosphere.
Non-invading cells were removed from the upper surface of the membrane by “scrubbing”. A cotton tipped swab was dipped into the insert after removal of the media, and firm pressure applied while the tip was moved over the membrane surface. The scrubbing was repeated with a second swab moistened with PBS. Cells that had invaded to the external surface of the insert were then fixed by placing in […] of 100% methanol for at least 5 mins. Inserts were then transferred to a companion plate containing 500 μL of 0.1% crystal violet in methanol, and stained for at least 15 mins. Inserts were destained by passage through 3 companion plates containing 500 μL water, before being air dried.
The following day, the membrane was removed from the insert housing by inverting the insert and inserting the tip of a sharp scalpel blade through the membrane at the edge adjacent to the housing wall. The insert housing was rotated against the stationary blade and the membrane was released. […]

Turning to `CC=C(C)C(=O)OC1C(C)C2(O)C(C3OC3(CO)C(O)C3(O)C(=O)C(C)=CC32)C2C(C)(C)C12OC(=O)C(C)CC` (centres unmarked) [Compound 1, 12-tigloyl-13-(2-methylbutanoyl)-6,7-epoxy-4,5,9,12,13,20-hexahydroxy-1-tigliaen-3-one], the “scarring of the healed site” value in the experiment on mouse skin is given as “minimal scarring”. Besides, the “diameter of affected area of skin” value in the experiment with mouse skin is “approximately 1 cm”. The “Differentiation endpoint (endpoint concentration in dilution series for induction of macrophage phenotype)” value in experiment [1] was determined as 1 ng/mL. The “% closure compared to control” value in experiment [2] (30 ng/mL) came to 150%; in experiment [2] (100 ng/mL), 160%; in experiment [3] (30 ng/mL), 166%; in experiment [3] (100 ng/mL), 146%. Further, the “staining pattern / growth of fibroblasts under the microscope” value in experiment [3] (24 hours post scratch) is reported as “growing in a multilayered fashion”. For the same compound, the “Cell count as % of control (Control = no compounds added)” value in experiment [4] is on record as 356 ± 141%. In experiment [4] (first study, 10 or 30 ng/mL, 10% foetal calf serum, 24 hours), the “migratory ability in the Matrigel invasion chamber system vs vehicle alone” value is listed as “increased migratory ability”.
Turning to `CCC(C)C(=O)OC1C(C)C2(O)C(C3OC3(CO)C(O)C3(O)C(=O)C(C)=CC32)C2C(C)(C)C12OC(=O)C(C)CC` (centres unmarked) [Compound 2, 12,13-di-(2-methylbutanoyl)-6,7-epoxy-4,5,9,12,13,20-hexahydroxy-1-tigliaen-3-one], the “scarring of the healed site” value in the experiment on mouse skin is “minimal scarring”. Moreover, the “diameter of affected area of skin” value in the experiment with mouse skin is “approximately 1 cm”. Moreover, the “Differentiation endpoint (endpoint concentration in dilution series for induction of macrophage phenotype)” value in experiment [1] was 1 ng/mL. Moreover, the figures for the “% closure compared to control” value in experiment [2] (30 ng/mL), in experiment [3] (30 ng/mL) and in experiment [3] (100 ng/mL) were 147%, 130% and 129%, respectively. The “Cell count as % of control (Control = no compounds added)” value in experiment [4] stood at 366 ± 122%.
